Among the test systems are ACHN renal; CAKI-1 renal; DU-145 prostate; EKVX NSCLC; HL-60(TB) leukemia; HT29 colon; LOX IMVI melanoma; M14 melanoma; MDA-MB-435; MDA-N; NCI-H522 lung; OVCAR-3 ovarian; SK-MEL-5 melanoma; SNB-19 CNS; UACC-257 melanoma.
Experiment in all cases: DTP human tumour cell line panel, 48 h

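A five-concentration, 48-hour dose response in 96-well plates underlies each endpoint, interpolated linearly between surrounding concentrations. TGI marks complete inhibition of growth.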

In general, TGI refers to the concentration at which net growth stops. In the case of `COC(=O)c1c(O)ccc2c1c1c(n2Cc2ccc(Cl)cc2Cl)C(=O)c2ccccc2C1=O`, the TGI is 20.4 µM in the experiment on ACHN renal; 27.2 µM in the experiment on CAKI-1 renal; 31.2 µM in the experiment on DU-145 prostate; 24.5 µM in the experiment on EKVX NSCLC; 34.2 µM in the experiment on HL-60(TB) leukemia; 32.1 µM in the experiment on HT29 colon. Also, the TGI came out at 33.3 µM in the experiment with LOX IMVI melanoma; 29 µM in the experiment with M14 melanoma; 20.6 µM in the experiment with MDA-MB-435; 29.5 µM in the experiment on MDA-N; 22 µM with NCI-H522 lung; 27.2 µM in the experiment on OVCAR-3 ovarian. Further, the total growth inhibition concentration (TGI) with SK-MEL-5 melanoma was determined as 27.1 µM; in the experiment on SNB-19 CNS, 30.6 µM; in the experiment on UACC-257 melanoma, 30.1 µM.

Regarding `O=c1oc2ccccc2c(O)c1/C=N/C(=S)NCCc1ccccc1`, the TGI was > 85.6 µM in the experiment with ACHN renal; > 100 µM with CAKI-1 renal; > 100 µM in the experiment with DU-145 prostate; > 100 µM in the experiment on EKVX NSCLC; 5.38 µM in the experiment on HL-60(TB) leukemia; > 100 µM in the experiment on HT29 colon. The TGI in the experiment on LOX IMVI melanoma was > 100 µM; with M14 melanoma, > 100 µM; with MDA-MB-435 it was > 75.3 µM; with MDA-N, > 100 µM; in the experiment on NCI-H522 lung, 87.4 µM; in the experiment on OVCAR-3 ovarian it was > 100 µM. The TGI in the experiment on SK-MEL-5 melanoma, in the experiment on SNB-19 CNS and with UACC-257 melanoma was > 100 µM in each case.

Take `CC(=O)Nc1cc2c3c(c1)CCCN3CCC2`: the TGI with ACHN renal, with CAKI-1 renal, in the experiment with DU-145 prostate, with EKVX NSCLC, with HL-60(TB) leukemia and in the experiment on HT29 colon was > 100 µM in each case. Moreover, the TGI in the experiment with LOX IMVI melanoma, in the experiment with M14 melanoma, in the experiment with MDA-MB-435, in the experiment on MDA-N, in the experiment with NCI-H522 lung and in the experiment with OVCAR-3 ovarian was > 100 µM each time. Moreover, the TGI with SK-MEL-5 melanoma, in the experiment with SNB-19 CNS and in the experiment on UACC-257 melanoma was > 100 µM throughout.

Consider `CN(C)P(=O)(Oc1ccc(CC(NC(=O)OCc2ccccc2)C(=O)OCc2ccccc2)cc1)N(C)C` (stereo not drawn), for which the TGI in the experiment on ACHN renal was determined as 33.9 µM; in the experiment with CAKI-1 renal, 32.8 µM; in the experiment with DU-145 prostate, 29.2 µM; with EKVX NSCLC, 32.2 µM; in the experiment on HL-60(TB) leukemia, 32.9 µM; with HT29 colon, 24.6 µM. Moreover, the TGI stood at 34.5 µM in the experiment on LOX IMVI melanoma; 32 µM in the experiment with M14 melanoma; 25.7 µM with MDA-MB-435; 34 µM in the experiment with MDA-N; 30.9 µM in the experiment with NCI-H522 lung; 11.4 µM in the experiment with OVCAR-3 ovarian. For the same compound, the TGI in the experiment on SK-MEL-5 melanoma was 38.1 µM; in the experiment on SNB-19 CNS it was 38.6 µM; in the experiment with UACC-257 melanoma, 47.5 µM.

Turning to `CCc1n[nH]c(=O)n1/N=C/c1ccc(C)cc1`, the TGI with ACHN renal, in the experiment with CAKI-1 renal, with DU-145 prostate, with EKVX NSCLC, in the experiment on HL-60(TB) leukemia and in the experiment with HT29 colon was > 100 µM throughout. Further, the TGI in the experiment on LOX IMVI melanoma, in the experiment with MDA-MB-435, in the experiment with MDA-N, in the experiment on NCI-H522 lung, in the experiment with OVCAR-3 ovarian and in the experiment with SK-MEL-5 melanoma was > 100 µM throughout. Moreover, the TGI in the experiment on SNB-19 CNS and in the experiment with UACC-257 melanoma was > 100 µM throughout.

`O=C(O)CCc1ccc2c(c1)C(=O)CC2`: the TGI in the experiment with ACHN renal, with DU-145 prostate, with EKVX NSCLC, in the experiment on HL-60(TB) leukemia, in the experiment on HT29 colon and in the experiment with LOX IMVI melanoma was > 100 µM throughout. The TGI in the experiment on M14 melanoma, with MDA-MB-435, in the experiment on MDA-N, with NCI-H522 lung, in the experiment on OVCAR-3 ovarian and with SK-MEL-5 melanoma was > 100 µM throughout. The concentration for total growth inhibition (TGI) in the experiment with SNB-19 CNS and in the experiment on UACC-257 melanoma was > 100 µM throughout.

With `O=c1[nH]nc(Cc2ccccc2)n1/N=C\c1ccccc1`, the TGI in the experiment with ACHN renal, with CAKI-1 renal, in the experiment on DU-145 prostate, in the experiment on EKVX NSCLC, in the experiment with HL-60(TB) leukemia and with HT29 colon was > 100 µM throughout. Further, the TGI with LOX IMVI melanoma, in the experiment on MDA-MB-435, with MDA-N, in the experiment with NCI-H522 lung, with OVCAR-3 ovarian and with SK-MEL-5 melanoma was > 100 µM in each case. In addition, the TGI with UACC-257 melanoma is > 100 µM.

On to `Cc1nc(N/N=C/c2ccccc2Cl)[nH]c(=O)c1CCO`, for which the TGI in the experiment on ACHN renal, in the experiment with DU-145 prostate, with EKVX NSCLC, in the experiment with HL-60(TB) leukemia, in the experiment on HT29 colon and with LOX IMVI melanoma was > 100 µM each time. The TGI in the experiment on M14 melanoma is > 100 µM; in the experiment on MDA-MB-435 it was > 100 µM; with MDA-N, > 100 µM; in the experiment with NCI-H522 lung it was 34.4 µM; in the experiment with OVCAR-3 ovarian, 46.5 µM; with SK-MEL-5 melanoma, > 100 µM. For the same compound, the total growth inhibition concentration (TGI) with SNB-19 CNS and with UACC-257 melanoma was > 100 µM in each case.

On to `Cc1ccc(Nc2c(C#N)[n+]([O-])c3cc(Cl)ccc3[n+]2[O-])cc1`, for which the TGI in the experiment with ACHN renal was > 100 µM; with CAKI-1 renal it was > 100 µM; in the experiment with DU-145 prostate, > 100 µM; with EKVX NSCLC it was > 100 µM; in the experiment with HL-60(TB) leukemia, 21.1 µM; in the experiment with HT29 colon, > 61.1 µM. The TGI in the experiment on LOX IMVI melanoma was > 100 µM; in the experiment with M14 melanoma, > 100 µM; in the experiment with MDA-MB-435 it was > 100 µM; in the experiment on MDA-N it was > 100 µM; in the experiment on NCI-H522 lung it was > 74.8 µM; in the experiment with OVCAR-3 ovarian, > 42.4 µM. The TGI in the experiment with SNB-19 CNS and in the experiment with UACC-257 melanoma was > 100 µM throughout.

Consider `COc1cc(S(=O)(=O)Nc2ccc(-c3csc(N)n3)cc2)ccc1Cl`, for which the concentration for total growth inhibition (TGI) in the experiment with ACHN renal was 32.8 µM; with CAKI-1 renal it was 45 µM; in the experiment with DU-145 prostate, 32.4 µM; in the experiment on EKVX NSCLC it was 30.2 µM; with HL-60(TB) leukemia it was 43.6 µM; in the experiment with HT29 colon, 35.8 µM. The TGI in the experiment on LOX IMVI melanoma came out at 34.8 µM; in the experiment on M14 melanoma, 35 µM; in the experiment on MDA-MB-435 it was 46.9 µM; with MDA-N, 38.5 µM; in the experiment with NCI-H522 lung it was 42.4 µM; with OVCAR-3 ovarian it was 28.9 µM. In addition, the results for the TGI in the experiment with SK-MEL-5 melanoma and with SNB-19 CNS were 30.6 µM and 33.8 µM, respectively.

The values above are taken from PubChem BioAssay (NCI).
